The source of these data is US9695176B2, “Substituted imidazo[1,5-a]pyrazines as CGRP receptor antagonists” (BRISTOL-MYERS SQUIBB COMPANY, priority 2012, dated 2017).

pIC50: −log10 of the molar value.

Broadly, the pIC50 is −log10 of the IC50, conventionally taken in molar units. Low values mean a high IC50, high ones a low IC50.

Human CGRP Receptor, sequence (Q16602 23-461): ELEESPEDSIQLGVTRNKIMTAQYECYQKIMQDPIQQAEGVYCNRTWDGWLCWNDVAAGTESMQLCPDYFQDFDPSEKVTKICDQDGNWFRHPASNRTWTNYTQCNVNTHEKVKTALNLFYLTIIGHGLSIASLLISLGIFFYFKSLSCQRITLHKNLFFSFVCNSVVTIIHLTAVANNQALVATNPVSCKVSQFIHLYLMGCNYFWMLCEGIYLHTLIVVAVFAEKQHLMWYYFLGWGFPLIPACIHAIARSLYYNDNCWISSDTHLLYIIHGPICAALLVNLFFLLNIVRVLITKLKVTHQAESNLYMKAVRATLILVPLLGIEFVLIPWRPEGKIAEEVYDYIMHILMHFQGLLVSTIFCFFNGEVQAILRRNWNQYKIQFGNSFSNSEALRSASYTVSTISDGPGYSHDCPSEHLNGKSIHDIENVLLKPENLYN
Human CGRP Receptor, sequence (O60894 27-148): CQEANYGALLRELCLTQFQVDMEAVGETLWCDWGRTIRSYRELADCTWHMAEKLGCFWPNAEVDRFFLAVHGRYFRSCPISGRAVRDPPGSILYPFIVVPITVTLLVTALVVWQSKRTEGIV

The test concerns the target Human CGRP Receptor (Homo sapiens (Human), UniProt O60894+Q16602). The experiment in a line: Radioligand binding assay, [125I]-CGRP displacement on SK-N-MC membranes. How it is done: Tissue Culture. SK-N-MC cells were grown at 37° C. in 5% CO2 as a monolayer in medium consisting of MEM with Earle's salts and L-glutamine (Invitrogen) supplemented with 10% fetal bovine serum (Invitrogen).
Membrane Preparation. Crude membranes were prepared from SK-N-MC cells expressing CGRP receptors. […] The cells were transferred from plates to polypropylene tubes (16×100 mm) and homogenized using a polytron. Homogenates were centrifuged at 32,000×g for 30 min. The pellets were resuspended in cold hypotonic lysis buffer with 0.1% mammalian protease inhibitor cocktail (Sigma) and assayed for protein concentration. The SK-N-MC homogenate was aliquoted and stored at −80° C.
Radioligand Binding Assay. The compounds of invention were solubilized and carried through serial dilutions using 100% DMSO. Aliquots from the compound serial dilutions were further diluted 25 fold into assay buffer (50 mM Tris-Cl pH 7.5, 5 mM MgCl2, 0.005% Triton X-100) and transferred (volume 50 μl) into 96 well assay plates. […] SK-N-MC membranes were thawed, diluted in assay buffer with fresh 0.1% mammalian protease inhibitor cocktail (Sigma), and re-homogenized. SK-N-MC homogenate (7 μg/well) was added in a volume of 100 μl. The assay plates were then incubated at room temperature for 2 h. Assays were stopped by addition of excess cold wash buffer (50 mM Tris-Cl pH 7.5, 0.1% BSA) immediately followed by filtration over glass fiber filters (Whatman GF/B) previously soaked in 0.5% PEI. Non-specific binding was defined with 1 μM beta-CGRP (Bachem). Protein bound radioactivity was determined using a gamma or scintillation counter. […] All compounds of invention were evaluated in at least two separate experiments.
As for `Cc1cc(CC(OC(=O)N2CCC(c3cc4ccccc4[nH]c3=O)CC2)c2ncc3n2CCN(C2CCCCC2)C3)cc2cn[nH]c12` (racemic) [Example 4, (±)-1-(7-Cyclohexyl-5,6,7,8-tetrahydroimidazo[1,5-a]pyrazin-3-yl)-2-(7-methyl-1H-indazol-5-yl)ethyl 4-(2-oxo-1,2-dihydroquinolin-3-yl)piperidine-1-carboxylate], the negative logarithm of the IC50 (pIC50) is 9.66.

`Cc1cc(CC(OC(=O)N2CCC(c3cc4ccccc4[nH]c3=O)CC2)c2ncc3n2CCN(Cc2ccccc2)C3)cc2cn[nH]c12` (racemic) [Example 1, (±)-1-(7-Benzyl-5,6,7,8-tetrahydroimidazo[1,5-c]pyrazin-3-yl)-2-(7-methyl-1H-indazol-5-yl)ethyl 4-(2-oxo-1,2-dihydroquinolin-3-yl)piperidine-1-carboxylate] gave a negative-log IC50 (pIC50) of 9.59. Under `Cc1cc(CC(OC(=O)N2CCC(c3cc4ccccc4[nH]c3=O)CC2)c2ncc3n2CCNC3)cc2cn[nH]c12` (racemic) [Example 3, (±)-2-(7-methyl-1H-indazol-5-yl)-1-(5,6,7,8-tetrahydroimidazo[1,5-a]pyrazin-3-yl)ethyl 4-(2-oxo-1,2-dihydroquinolin-3-yl)piperidine-1-carboxylate] stands 8.53.

As for `CCN1CCn2c(cnc2C(Cc2cc(C)c3[nH]ncc3c2)OC(=O)N2CCC(c3cc4ccccc4[nH]c3=O)CC2)C1` (racemic) [Example 2, (±)-1-(7-ethyl-5,6,7,8-tetrahydroimidazo[1,5-a]pyrazin-3-yl)-2-(7-methyl-1H-indazol-5-yl)ethyl 4-(2-oxo-1,2-dihydroquinolin-3-yl)piperidine-1-carboxylate], the pIC50 is 8.77.
